Paper PMC12077799, “Fragment-based drug discovery for transthyretin kinetic stabilisers using a novel capillary zone electrophoresis method” (PLOS One, 2025)
Read-outs that look alike come from different tables or passages of the source.

Tests used:
TTR [1] = molecular target: T1, TTR (Homo sapiens, UniProt P02766); experiment: Isothermal titration calorimetry (ITC); assay type: binding
T1 construct: purchased SCIPAC (Sittingbourne, Kent, UK) P171-1
Method: All ITC experiments were conducted on an iTC200 calorimeter (GE Healthcare), and the settings were 25 °C, stir at 1000 RPM, 1–2 μL injection spaced with 100–150 seconds, reference power: 6 μcal/sec. Isotherms were fitted using ORIGIN 7 software (OriginLab, MA, USA). To prepare TTR ITC protein solution (5 mL), purified and freeze-dried human TTR was weighted and dissolved in 310 μL of pure water. The reconstituted protein solution was then desalted by spin column (Bio-Rad, Bio-Gel P6) and the eluted volume was transferred to a 15mL falcon tube. The protein solution was further diluted with 10x Phosphate Buffered Saline (PBS, 500 μL), DMSO (150 μL) and water, (f/c: 4.3 mM Na2HPO4, 137 mM NaCl, 2.7 mM KCl, 1.47 mM KH2PO4, 3% DMSO v/v, TTR 19.35–25 μM, pH 7.8). UV A260/280 was measured to obtain the actual protein concentration using a calculated extinction coefficient of 18450 M^-1 cm^-1. To prepare ligand ITC solution (1 mL), 30 μL of ligand stock in DMSO was diluted with 10x PBS (100 μL) and water (f/c: 4.3 mM Na2HPO4, 137 mM NaCl, 2.7 mM KCl, 1.47 mM KH2PO4, 3% DMSO v/v, Ligand 280–600 μM, pH 7.8).

TTR [2] = molecular target: T1, TTR; experiment: Induced near-UV circular dichroism of ligand on TTR binding; settings: induced CD signal 280–320 nm, TTR 13.62 μM
Method: CD experiments were conducted in Diamond Light Source (Oxon, UK) beamline B23 installed with an Olis™ DSM 20 CD spectrophotometer. CD Buffer (10 mM Tris-HCl, 5 mM NaCl, pH 8.0) was prepared and loaded (450 μL) into a UV cuvette (10 mm path length). The near-UV (260–380 nm) CD spectrum of the solution was measured. 1 μL of SFL001535 10 mM DMSO stock was added into the cuvette and mixed by inversion. The CD spectrum of this solution was measured again. Contents of the cuvette containing SFL001535 in buffer were removed and the cuvette was washed with nitric acid. CD Buffer containing 13.62 μM of TTR was loaded into the cuvette and the near-UV CD spectrum of TTR was obtained (measured 10 times). A total of 8 μL of SFL001535 10 mM stock was added to the solution in 4 step additions (1 + 1 + 2 + 4 μL) and the CD spectrum were measured after each addition. The induced CD of SFL001535 was calculated by subtracting the CD spectrum of TTR alone.

[3] = molecular target: T2, Human transthyretin (TTR) thyroxine binding sites (Homo sapiens, UniProt P02766); experiment: TTR CZE Free Probe Peak Height Restoration (FPPHR) assay, 8-ANS displacement
T2 construct: purchased SCIPAC (Sittingbourne, Kent, UK) P171-1
Method: CZE assays development and fragment screening were performed on a Beckman P/ACE MDQ capillary electrophoresis system (Beckman Coulter Inc., Brea, CA) operated by 32 Karat™ software. All capillaries (Polymicro Technologies, Phoenix, AZ) used were internally coated with polyvinyl alcohol and of around 30 cm in length, 75 microns in internal diameter. Capillary temperature was maintained at 20 °C by recirculating fluorinated fluid coolant during electrophoresis. Sample trays and buffer trays temperature were maintained at 4°C and ambient respectively. For every electrophoretic run, the capillary was pressure rinsed and prefilled with electrophoresis buffer also known as background electrolyte (termed as Running Buffer hereafter) before injection. After each electrophoretic run, the capillary was rinsed with Running Buffer and H2O by pressure (20 psi for 1 minute). Three Running Buffers (RB), A: 20 mM Tris pH 7.5, 1 mM KCl, 1.62 mM NaCl; B: 20 mM HEPES pH 7.0, 2 mM CaCl2 and C: 20 mM HEPES pH 7.0, 2 mM CaCl2, 1% DMSO were used. All CE traces were analysed by 32Karat™ Software with a built-in automatic peak integration algorithm.
Control 1 Inject Buffer (IB) containing 30 μM 8-ANS was prepared by mixing 1 μL of 3 mM 8-ANS DMSO stock with 99 μL of Running Buffer B in a 0.2 mL PCR tube. Control 2 Inject Buffer was prepared by mixing 1μL of 3 mM 8-ANS DMSO stock with 20 μL of 100 μM tetrameric TTR stock in Running Buffer B and 79 μL of Running Buffer B. The final concentrations (f/c) were 8-ANS 30 μM, TTR 20 μM and 1% DMSO v/v.
The maximum Free Probe Peak Height (Control 1 Peak Height) was determined by Outlet Injection (see Fig 1) of Control 1 with an injection pressure of 0.5 psi for 5 seconds (equivalent to ≈ 20–30 nL). An identical injection of Control 2 provides the minimum Free Probe Peak Height (Control 2 Peak Height) enabling calculation of % of bound and unbound, i.e., free 8-ANS. To determine the 8-ANS peak height in Control 1 and Control 2, the capillary was prefilled with Buffer C and electrophoresis carried out at 10 kV (Normal Polarity, Fig 1) with UV monitoring at 230 nm. For displacement analysis, ligand DMSO stock was diluted in Buffer B and used to fill the capillary as the Running Buffer. Electrophoresis commenced after injection of Control 2, thus the injected 8-ANS-TTR complex migrates inside a capillary filled with the test ligand. The observed 8-ANS peak height is defined as Sample Peak Height and the displaced 8-ANS can be calculated as:
\% of Free Probe Peak Height Restoration= Sample Peak Height−Control 2 Peak Height/Control 1 Peak Height−Control 2 Peak Height

[4] = molecular target: T3, TTR in undiluted normal human reference plasma (Homo sapiens, UniProt P02766); experiment: 125I-T4 displacement assay in neat normal human plasma; assay type: binding; settings: neat normal human plasma; 4-parameter logistic fit
T3 construct: The TTR in plasma was immunoprecipitated by sheep anti-human prealbumin polyclonal antibody; tissue Precision Biologic Inc., Nova Scotia, Canada
Text: The assay was adapted from one described previously. Briefly, test ligand and ^125I-T4 (Perkin Elmer Inc., Waltham, MA) were mixed with undiluted normal human reference plasma (Precision Biologic Inc., Nova Scotia, Canada). The TTR in plasma was immunoprecipitated by sheep anti-human prealbumin polyclonal antibody (The Binding Site Group Ltd., Birmingham, UK). The immunoprecipitate was washed with buffer and their radioactivity measured with a 2470 WIZARD automatic gamma counter (Perkin Elmer Inc., Waltham, MA). […] Percentage of total radioligand binding for samples of different ligand concentration was then calculated as follows: […]
To calculate IC50 values, percentage of total radioligand binding at different concentration points were entered in SigmaPlot™ 11.0. Titration curves were done in triplicates with a minimum of 5 data points fitted by 4-Parameter Logistic Function.

[5] = N = number of non-hydrogen atoms

`c1ccc2c(-c3cn[nH]c3)ccnc2c1` [SFL001535, 4-(3H-pyrazol-4-yl)quinoline] showed a Kd (TTR [1]; 25 °C, PBS pH 7.8, 3% DMSO, read-out: ITC Kd1 ± SD (N = 3)) of 260 nM, a Kd (TTR [1]; 25 °C, PBS pH 7.8, 3% DMSO, read-out: ITC Kd2 ± SD (N = 3)) of 1960 nM and a Kd (TTR [1]; Fig 8 isotherm, ± standard error of curve fitting, read-out: ITC Kd1 of shown isotherm) of 260 ± 88.2 nM. For the same compound, the “Kd1 LE (Ligand Efficiency, ΔG/N)” value (TTR [1]; [5]) was 0.60 kcal/mol, the “Kd2 LE (Ligand Efficiency, ΔG/N)” value (TTR [1]; [5]) was 0.52 kcal/mol and the “binding to TTR by induced CD” value (TTR [2]) was “confirmed”. For the same compound, the “FPPHR % tested at 10 µM” value ([3]; compound 10 µM in Running Buffer, 10% minimum for a binder) was 34.10% tested at 10 µM, the “FPPHR % at 100 μM” value ([3]; compound 100 μM in Running Buffer, 10% minimum for a binder) was 64.23% and the inhibition at 50 µM ([3]; read-out: FPPHR % at 50 μM) was 60.5%. It also gave an IC50 [4] of 34500 ± 12400 nM.
